Laboratory results published in patent publication US20070156342A1, “Pseudo-sequence method for comparing 7tm receptors with respect to the physico-chemical properties of their binding sites” (7TM PHARMA A/S, priority 2003, published 2007).

Target: T1, GRP44 (CRTH2) (Homo sapiens, UniProt Q9Y5Y4)
T1 sequence (Q9Y5Y4 1-395): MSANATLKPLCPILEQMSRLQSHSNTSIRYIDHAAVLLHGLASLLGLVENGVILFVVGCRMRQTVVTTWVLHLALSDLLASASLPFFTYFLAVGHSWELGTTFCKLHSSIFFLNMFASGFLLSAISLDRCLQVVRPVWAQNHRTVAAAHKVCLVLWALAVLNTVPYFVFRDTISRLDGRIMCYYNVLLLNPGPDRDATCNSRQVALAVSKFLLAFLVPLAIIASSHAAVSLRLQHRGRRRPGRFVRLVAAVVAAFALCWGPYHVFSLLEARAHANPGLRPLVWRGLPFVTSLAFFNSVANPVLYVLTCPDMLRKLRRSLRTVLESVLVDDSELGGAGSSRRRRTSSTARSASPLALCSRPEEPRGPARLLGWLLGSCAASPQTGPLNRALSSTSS
Test: Inhibition of [3H]PGD2 at GRP44 (CRTH2)
Assay type: binding
Excerpt: A model using theoretical size and electronic descriptors ranked the angiotensin AT2 and angiotensin AT1 receptors to be closely related to GRP44 (CRTH2) with respect to ligand-binding features in the binding site.

CCOc1nc2cccc(C(=O)O)c2n1Cc1ccc(-c2ccccc2-c2nnn[nH]2)cc1 [candesartan]
binding to CRTH2 (in words) (angiotensin II ligand found via the related receptor): also binding to CRTH2 | IC50 (radioligand [3H]PGD2): 2100 nM
